Measured values as given in article PMC5053523, “In Vitro Antibacterial Activity of Rhodanine Derivatives against Pathogenic Clinical Isolates” (PLoS ONE, 2016).
In brackets after ≈: the same amount, converted by molar mass. Read-outs that look alike come from different tables or passages of the source.

How the values were obtained:
Format in all cases: cell-based
[1] = tested on: Vancomycin Resistant Staphylococcus aureus (VRSA); experiment: Broth microdilution MIC/MBC, VRSA; settings: for MBC / MIC: VRSA
Escherichia coli O157:H7 = experiment: MIC with/without sub-MIC colistin, Escherichia coli O157:H7
How it was run: (§1)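 Rhodanines and control antibiotics are tested for MIC against Gram-negative bacteria while a sub-inhibitory level of colistin or PMBN is present. A strain of E. coli lacking the AcrAB efflux pump (SM1411ΔacrAB) serves as an additional test organism.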

Klebsiella pneumoniae = experiment: MIC with/without PMBN, Klebsiella pneumoniae
How it was run: as §1

K. pneumoniae = experiment: Broth microdilution MIC, K. pneumoniae
[2] = tested on: vancomycin resistant enterococci (VRE) E. faecium; experiment: Broth microdilution MIC/MBC, VRE E. faecium; settings: for MIC: read-out: MIC
[3] = tested on: vancomycin resistant enterococci (VRE) E. faecalis; experiment: Broth microdilution MIC/MBC, VRE E. faecalis; settings: for MIC: read-out: MIC
Acinetobacter baumannii = experiment: MIC with/without PMBN, Acinetobacter baumannii
How it was run: as §1

Candida albicans = experiment: MIC against Candida albicans; settings: table prints none, read-out: MIC
[4] = tested on: methicillin-resistant Staphylococcus aureus (MRSA); experiment: Broth microdilution MIC/MBC, MRSA
Bacillus anthracis = experiment: microbe, parasite or virus in culture
[5] = E. faecium HM 968 Strain ERV102
[6] = E. faecium NR31914 Strain E0120
[7] = E. faecium Patient #1–1 NR-31903
[8] = E. faecalis NR31972 Strain SF 28073

Structure (SMILES): O=C(O)[C@@H](Cc1ccccc1)N1C(=O)/C(=C/c2cccc(Oc3ccc(F)cc3)c2)SC1=S [Rh 4]
- MIC50 ([1]; 15 VRSA strains, read-out: MIC 50): 16 µM (≈ 7.67 µg/mL)
- MIC90 ([1]; 15 VRSA strains, read-out: MIC 90): 16 µM (≈ 7.67 µg/mL)
- MBC ([1]; VRSA 1, read-out: MBC): 64 µM (≈ 30.7 µg/mL)
- MIC ([1]; VRSA 1, read-out: MIC): 16 µM (≈ 7.67 µg/mL)
- MBC ([1]; VRSA 2, read-out: MBC): 16 µM (≈ 7.67 µg/mL)
- MIC ([1]; VRSA 2, read-out: MIC): 16 µM (≈ 7.67 µg/mL)
- MBC ([1]; VRSA 3a, read-out: MBC): 32 µM (≈ 15.3 µg/mL)
- MIC ([1]; VRSA 3a, read-out: MIC): 16 µM (≈ 7.67 µg/mL)
- MBC ([1]; VRSA 3b, read-out: MBC): 16 µM (≈ 7.67 µg/mL)
- MIC ([1]; VRSA 3b, read-out: MIC): 16 µM (≈ 7.67 µg/mL)
- MBC ([1]; VRSA 4, read-out: MBC): 64 µM (≈ 30.7 µg/mL)
- MIC ([1]; VRSA 4, read-out: MIC): 16 µM (≈ 7.67 µg/mL)
- MBC ([1]; VRSA 5, read-out: MBC): 32 µM (≈ 15.3 µg/mL)
- MIC ([1]; VRSA 5, read-out: MIC): 16 µM (≈ 7.67 µg/mL)
- MBC ([1]; VRSA 6, read-out: MBC): 32 µM (≈ 15.3 µg/mL)
- MIC ([1]; VRSA 6, read-out: MIC): 16 µM (≈ 7.67 µg/mL)
- MBC ([1]; VRSA 7, read-out: MBC): 32 µM (≈ 15.3 µg/mL)
- MIC ([1]; VRSA 7, read-out: MIC): 16 µM (≈ 7.67 µg/mL)
- MBC ([1]; VRSA 8, read-out: MBC): 32 µM (≈ 15.3 µg/mL)
- MIC ([1]; VRSA 8, read-out: MIC): 16 µM (≈ 7.67 µg/mL)
- MBC ([1]; VRSA 9, read-out: MBC): 32 µM (≈ 15.3 µg/mL)
- MIC ([1]; VRSA 9, read-out: MIC): 32 µM (≈ 15.3 µg/mL)
- MBC ([1]; VRSA 10, read-out: MBC): 32 µM (≈ 15.3 µg/mL)
- MIC ([1]; VRSA 10, read-out: MIC): 16 µM (≈ 7.67 µg/mL)
- MBC ([1]; VRSA 11a, read-out: MBC): 64 µM (≈ 30.7 µg/mL)
- MIC ([1]; VRSA 11a, read-out: MIC): 16 µM (≈ 7.67 µg/mL)
- MBC ([1]; VRSA 11b, read-out: MBC): 64 µM (≈ 30.7 µg/mL)
- MIC ([1]; VRSA 11b, read-out: MIC): 16 µM (≈ 7.67 µg/mL)
- MBC ([1]; VRSA 12, read-out: MBC): 64 µM (≈ 30.7 µg/mL)
- MIC ([1]; VRSA 12, read-out: MIC): 16 µM (≈ 7.67 µg/mL)
- MBC ([1]; VRSA 13, read-out: MBC): 64 µM (≈ 30.7 µg/mL)
- MIC ([1]; VRSA 13, read-out: MIC): 16 µM (≈ 7.67 µg/mL)
- MIC (Escherichia coli O157:H7; Escherichia coli O157:H7 ATCC 35150, colistin (+) […], read-out: MIC): >64 µM
- MIC (Escherichia coli O157:H7; Escherichia coli O157:H7 ATCC 700728, colistin (+) […], read-out: MIC): >64 µM
- MIC (Escherichia coli O157:H7; Escherichia coli, ATCC35150): > 128 µM
- MIC (Escherichia coli O157:H7; Escherichia coli, ATCC700728): > 128 µM
- MIC (Klebsiella pneumoniae; Klebsiella pneumoniae ATCC BAA 1706, PMBN (+) 4 μg/mL): >64 µM
- MIC (Klebsiella pneumoniae; Klebsiella pneumoniae ATCC BAA 2146, PMBN (+) 4 μg/mL): >64 µM
- MIC (Klebsiella pneumoniae; Klebsiella pneumoniae, BAA1706): > 128 µM
- MIC (Klebsiella pneumoniae; Klebsiella pneumoniae, BAA2146): > 128 µM
- MIC (K. pneumoniae; K. pneumoniae NR-15417): >128 µM
- MIC (K. pneumoniae; Klebsiella pneumoniae): > 128 µM
- MBC ([2]; E. faecium E417 HM-965): > 64 µM
- MIC ([2]; E. faecium E417 HM-965): 16 µM (≈ 7.67 µg/mL)
- MBC ([2]; E. faecium E1071 NR-28978): 64 µM (≈ 30.7 µg/mL)
- MIC ([2]; E. faecium E1071 NR-28978): 32 µM (≈ 15.3 µg/mL)
- MBC [2, 5]: 64 µM (≈ 30.7 µg/mL)
- MIC [2, 5]: 32 µM (≈ 15.3 µg/mL)
- MBC [2, 6]: 64 µM (≈ 30.7 µg/mL)
- MIC [2, 6]: 32 µM (≈ 15.3 µg/mL)
- MBC [2, 7]: 64 µM (≈ 30.7 µg/mL)
- MIC [2, 7]: 16 µM (≈ 7.67 µg/mL)
- MBC ([3]; E. faecalis ERV103 HM-934): 32 µM (≈ 15.3 µg/mL)
- MIC ([3]; E. faecalis ERV103 HM-934): 32 µM (≈ 15.3 µg/mL)
- MBC [3, 8]: 32 µM (≈ 15.3 µg/mL)
- MIC [3, 8]: 32 µM (≈ 15.3 µg/mL)
- MBC ([3]; E. faecalis R712 HM-335): 32 µM (≈ 15.3 µg/mL)
- MIC ([3]; E. faecalis R712 HM-335): 16 µM (≈ 7.67 µg/mL)
- MBC ([3]; E. faecalis S613 HM-334): 32 µM (≈ 15.3 µg/mL)
- MIC ([3]; E. faecalis S613 HM-334): 32 µM (≈ 15.3 µg/mL)
- MBC ([3]; E. faecalis TX0104 HM-201): 32 µM (≈ 15.3 µg/mL)
- MIC ([3]; E. faecalis TX0104 HM-201): 32 µM (≈ 15.3 µg/mL)
- MIC (Acinetobacter baumannii; Acinetobacter baumannii ATCC BAA747, PMBN (+) 4 μg/mL, read-out: MIC): >64 µM
- MIC (Acinetobacter baumannii; Acinetobacter baumannii ATCC BAA19606, PMBN (+) 4 μg/mL, read-out: MIC): >64 µM
- MIC (Acinetobacter baumannii; Acinetobacter baumannii, ATCCBAA747): > 128 µM
- MIC (Acinetobacter baumannii; Acinetobacter baumannii, ATCCBAA19606): > 128 µM
- MIC (Candida albicans; ATCC10231, C. albicans ATCC 10231, unit from abstract): > 64 µM
- MIC (Candida albicans; C. albicans NR 29434, unit from abstract): > 64 µM
- MIC (Candida albicans; C. albicans NR 29435, unit from abstract): > 64 µM
- MIC (Candida albicans; C. albicans NR29437, unit from abstract): > 64 µM
- MIC (Candida albicans; C. albicans NR29438, unit from abstract): > 64 µM
- MIC (Candida albicans; C. albicans NR 29446, unit from abstract): 64 µM (≈ 30.7 µg/mL)
- MIC (Candida albicans; C. albicans NR 29448, unit from abstract): > 64 µM
- MIC (Candida albicans; C. albicans NR 29449, unit from abstract): > 64 µM
- MIC (Candida albicans; C. albicans NR 29453, unit from abstract): > 64 µM
- MIC (Candida albicans; C. albicans NR 294436, unit from abstract): > 64 µM
- MIC50 ([4]; 11 MRSA strains): 16 µM (≈ 7.67 µg/mL)
- MIC90 ([4]; 11 MRSA strains): 32 µM (≈ 15.3 µg/mL)
- MBC ([4]; MRSA NRS 1): 32 µM (≈ 15.3 µg/mL)
- MIC ([4]; MRSA NRS 1): 16 µM (≈ 7.67 µg/mL)
- MBC ([4]; MRSA NRS 19): 32 µM (≈ 15.3 µg/mL)
- MIC ([4]; MRSA NRS 19): 16 µM (≈ 7.67 µg/mL)
- MBC ([4]; MRSA NRS 37): 32 µM (≈ 15.3 µg/mL)
- MIC ([4]; MRSA NRS 37): 32 µM (≈ 15.3 µg/mL)
- MBC ([4]; MRSA NRS 107): 32 µM (≈ 15.3 µg/mL)
- MIC ([4]; MRSA NRS 107): 16 µM (≈ 7.67 µg/mL)
- MBC ([4]; MRSA NRS 119): 32 µM (≈ 15.3 µg/mL)
- MIC ([4]; MRSA NRS 119): 16 µM (≈ 7.67 µg/mL)
- MBC ([4]; MRSA NRS 382): 16 µM (≈ 7.67 µg/mL)
- MIC ([4]; MRSA NRS 382): 16 µM (≈ 7.67 µg/mL)
- MBC ([4]; MRSA NRS 383): 32 µM (≈ 15.3 µg/mL)
- MIC ([4]; MRSA NRS 383): 32 µM (≈ 15.3 µg/mL)
- MBC ([4]; MRSA NRS 384): 64 µM (≈ 30.7 µg/mL)
- MIC ([4]; MRSA NRS 384): 16 µM (≈ 7.67 µg/mL)
- MBC ([4]; MRSA NRS 385): 32 µM (≈ 15.3 µg/mL)
- MIC ([4]; MRSA NRS 385): 16 µM (≈ 7.67 µg/mL)
- MBC ([4]; MRSA NRS 386): > 64 µM
- MIC ([4]; MRSA NRS 386): 16 µM (≈ 7.67 µg/mL)
- MBC ([4]; MRSA NRS 387): 64 µM (≈ 30.7 µg/mL)
- MIC ([4]; MRSA NRS 387): 16 µM (≈ 7.67 µg/mL)
- MBC (Bacillus anthracis; Bacillus anthracis AMES35): 4 µM (≈ 1.92 µg/mL)
- MIC (Bacillus anthracis; Bacillus anthracis AMES35): 4 µM (≈ 1.92 µg/mL)
- MBC (Bacillus anthracis; Bacillus anthracis UM23): 4 µM (≈ 1.92 µg/mL)
- MIC (Bacillus anthracis; Bacillus anthracis UM23): 4 µM (≈ 1.92 µg/mL)
- MBC (Bacillus anthracis; Bacillus anthracis Weybridge): 4 µM (≈ 1.92 µg/mL)
- MIC (Bacillus anthracis; Bacillus anthracis Weybridge): 4 µM (≈ 1.92 µg/mL)
